{"source": "patent US20040014209A1", "about": "“Compositions and methods for modulating cell differentiation” (priority 2002, published 2004)", "target": "T1, Wnt8 (Xenopus laevis, UniProt P28026)", "T1 construct": "expressed in transfected cells; host or cells: Xenopus laevis embryos (mRNA injection at the two-cell stage), animal caps isolated at stage 9", "T1 sequence (P28026 23-358)": "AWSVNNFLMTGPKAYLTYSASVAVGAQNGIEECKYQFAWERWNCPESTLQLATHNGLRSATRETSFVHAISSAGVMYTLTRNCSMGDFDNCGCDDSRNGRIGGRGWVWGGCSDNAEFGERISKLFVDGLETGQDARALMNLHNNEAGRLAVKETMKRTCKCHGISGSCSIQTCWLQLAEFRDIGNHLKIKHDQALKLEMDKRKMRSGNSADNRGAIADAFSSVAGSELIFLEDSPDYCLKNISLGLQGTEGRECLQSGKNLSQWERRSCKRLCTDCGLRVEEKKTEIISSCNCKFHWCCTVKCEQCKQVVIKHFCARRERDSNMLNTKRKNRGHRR", "test": "Block of Wnt8 induction of Siamois in animal caps", "format": "cell-based", "conditions": "RT-PCR at stage 10.5", "experimental": "FIG. 6. dkk-1 and crescent, but not frzb, induce cardiac specific gene expression in noncardiogenic tissue. (A) mRNAs encoding various Wnt and BMP antagonists were injected equatorially into ventral blastomeres at the four-cell stage. Ventral marginal zone (VMZ) tissue was then explanted from Xenopus laevis at stage 10 and cultured until analyzed by RT-PCR for gene expression at stage 30 (see Materials and Methods). (B) Injection of dkk-1 or crescent induced both markers of cardiac mesoderm (Tbx5 and Nkx2.5) and heart muscle-specific genes (cardiac isoform of troponin-I, Tnlc, and myosin heavy chain-α, MHCα) in VMZ tissue. frzb, in contrast, induced muscle actin (m. actin), which is primarily a skeletal muscle marker, but not cardiac specific gene expression. […] Wnt8 and Wnt antagonist mRNAs were injected into the animal region of two-cell-stage embryos and caps were isolated at stage 9, cultured, and processed for RT-PCR at stage 10.5 (F). […] EF1α expression is shown as a control for the RT reaction in all cases.\nThe reason for the difference in doses of dkk-1 and crescent mRNA required to induce muscle actin and the cardiac-specific markers was explored further by evaluating their relative ability to block Siamois induction by Wnt8 (FIG. 6F, G). […]"}
{"substance": "dkk-1", "values": [{"measurement": "Wnt8 induction of Siamois", "result": "block Wnt8 induction of Siamois"}]}
